Assays:
[1] = biological target: T1, murine Aurora Kinase 1 (mAur1) (Mus musculus, UniProt O70126); assay: murine Aurora Kinase 1 (mAur1) biochemical Scintillation Proximity Assay; conditions: SPA, biotinylated Peptide 830, 1 μM ATP, 12 nM GST-tagged mAur 1 co-expressed with human INCENP
T1 construct: recombinant, GST-tagged mAur 1 (amino acids 67-345) that was co-expressed with human INCENP; GST; made in house
Description: (§1) Using a Scintillation Proximity Assay (SPA) format, the murine Aurora Kinase 1 (mAur1) and murine Aurora Kinase 2 (mAur2) biochemical assay measures the ability of mAur2 to phosphorylate the substrate, biotinylated Peptide 830 (DRT, Protein Sciences). Once radiolabeled by the enzyme, the biotinylated substrate is captured on streptavidin-coated SPA beads and the radioactivity, in proximity to the SPA beads, is measured. For the generation of IC50 curves, the reaction was performed in 96-well isoplates (Wallac 1450-514) under the following conditions: a 10 mM stock solution of compound (in 100% dimethylsulfoxide; DMSO) was diluted 10 fold in 100% DMSO. Compounds were then serially diluted, 1:5, for an eight point dose curve, in 100% DMSO. A volume of 1 μL of the diluted compound was added to the reaction buffer that consisted of 25 mM HEPES pH 7.5, 1 mM MnCl2, 1 mM MgCl2, 1 mM DTT, 0.01% Tween20. A mixture with a final concentration per well of 1 μM cold ATP, 0.1 μCi ^33P-ATP (Amersham AH9968) and 1 μM biotinylated Peptide 830 was then added. The reaction was initiated with the addition of either recombinant, GST-tagged mAur 1 (amino acids 67-345) that was co-expressed with human INCENP (amino acids 704-919) (DRT, Protein Sciences) at a final concentration of 12 nM or N-terminal His-tagged mAur2 (amino acids 98-395; DRT, Protein Sciences) at a final concentration of 20 nM. The final reaction volume in each well was 100 μL and the final compound concentration ranged from 10 μM-[…] in 1% DMSO. The reaction mixture was allowed to incubate for 1-2 hours with gentle agitation at 25° C. To terminate the reaction, streptavidin-coated SPA beads (Amersham RPNQ0007; 50 μL of 0.5 mg beads dissolved in 165 mM EDTA) were then added to each well and incubation proceeded for an additional 15 minutes at 25° C. The plate was then centrifuged for ten minutes at 2000 rpm. Phosphorylation of the peptide substrate was measured using a Wallac 1450 Microbeta Plus Liquid Scintillation Counter.

[2] = biological target: T2, murine Aurora Kinase 2 (mAur2) (Mus musculus, UniProt P97477); assay: murine Aurora Kinase 2 (mAur2) biochemical Scintillation Proximity Assay; conditions: SPA, biotinylated Peptide 830, 1 μM ATP, 20 nM His-tagged mAur2
T2 construct: N-terminal His-tagged mAur2 (amino acids 98-395; DRT, Protein Sciences); His (N); made in house
T2 sequence (P97477 98-395): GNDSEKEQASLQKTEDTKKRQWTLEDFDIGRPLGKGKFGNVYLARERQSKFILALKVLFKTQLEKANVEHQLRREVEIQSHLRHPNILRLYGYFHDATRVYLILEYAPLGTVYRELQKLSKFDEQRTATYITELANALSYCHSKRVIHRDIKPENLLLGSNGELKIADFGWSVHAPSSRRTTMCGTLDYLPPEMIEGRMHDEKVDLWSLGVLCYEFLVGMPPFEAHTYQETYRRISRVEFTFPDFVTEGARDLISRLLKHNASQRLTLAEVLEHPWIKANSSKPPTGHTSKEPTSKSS
Description: as §1

T1 sequence (O70126 67-345): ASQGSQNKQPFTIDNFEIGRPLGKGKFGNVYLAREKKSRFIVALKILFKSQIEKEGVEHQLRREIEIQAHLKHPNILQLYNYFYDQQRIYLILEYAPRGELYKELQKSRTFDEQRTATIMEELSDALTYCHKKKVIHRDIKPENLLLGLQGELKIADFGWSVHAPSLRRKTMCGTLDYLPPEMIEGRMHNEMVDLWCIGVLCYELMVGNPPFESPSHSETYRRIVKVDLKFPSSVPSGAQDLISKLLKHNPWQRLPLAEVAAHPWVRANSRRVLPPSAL
T1 sequence (Q9NQS7 704-918 partner): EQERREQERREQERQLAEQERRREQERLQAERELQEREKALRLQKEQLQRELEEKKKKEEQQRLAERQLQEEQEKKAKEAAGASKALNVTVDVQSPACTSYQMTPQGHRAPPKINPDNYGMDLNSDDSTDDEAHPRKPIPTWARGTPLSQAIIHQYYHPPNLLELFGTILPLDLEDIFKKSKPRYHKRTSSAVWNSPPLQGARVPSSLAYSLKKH

| IC50 [1] [nM] | IC50 [2] [nM] | SMILES |
| --- | --- | --- |
| < 100 | < 100 | Nc1ncnn2cc(C(=O)NCC(F)(F)F)c(-c3ccc(Nc4nc5cc(F)cc(F)c5[nH]4)cc3)c12 [Example 6, 4-amino-5-{4-[(5,7-difluoro-1H-benzimidazol-2-yl)amino]phenyl}-N-(2,2,2-trifluoroethyl)pyrrolo[2,1-f][1,2,4]triazine-6-carboxamide] |
| < 100 | < 100 | CC(C)N(C)C(=O)c1cn2ncnc(N)c2c1-c1ccc(Nc2nc3cc(F)cc(F)c3[nH]2)cc1 [Example 92, 4-amino-5-{4-[(5,7-difluoro-1H-benzimidazol-2-yl)amino]phenyl}-N-isopropyl-N-methylpyrrolo[2,1-f][1,2,4]triazine-6-carboxamide] |
| < 100 | < 100 | Nc1ncnn2cc(C(=O)NCC(F)(F)F)c(-c3ccc(Nc4nc5cc6c(cc5[nH]4)OC(F)(F)O6)c(F)c3)c12 [Example 60, 4-amino-5-{4-[(2,2-difluoro-5H-[1,3]dioxolo[4,5-f]benzimidazol-6-yl)amino]-3-fluorophenyl}-N-(2,2,2-trifluoroethyl)pyrrolo[2,1-f][1,2,4]triazine-6-carboxamide] |
| < 100 | < 100 | CCCN(C)C(=O)c1cn2ncnc(N)c2c1-c1ccc(Nc2nc3cc(F)cc(F)c3[nH]2)cc1 [Example 93, 4-amino-5-{4-[(5,7-difluoro-1H-benzimidazol-2-yl)amino]phenyl}-N-methyl-N-propylpyrrolo[2,1-f][1,2,4]triazine-6-carboxamide] |
| < 100 | < 100 | CC(C)CNC(=O)c1cn2ncnc(N)c2c1-c1ccc(Nc2nc3ccc(Oc4ccccc4)c(F)c3[nH]2)cc1 [Example 111, 4-amino-5-{4-[(7-fluoro-6-phenoxy-1H-benzimidazol-2-yl)-amino]phenyl}-N-isobutylpyrrolo[2,1-f][1,2,4]triazine-6-carboxamide] |
| < 100 | < 100 | CCN(C)C(=O)c1cn2ncnc(N)c2c1-c1ccc(Nc2nc3ccc(Oc4ccccc4)c(F)c3[nH]2)cc1 [Example 106, 4-amino-N-ethyl-5-{4-[(7-fluoro-6-phenoxy-1H-benzimidazol-2-yl)amino]phenyl}-N-methylpyrrolo[2,1-f][1,2,4]triazine-6-carboxamide] |
| < 100 | < 100 | Nc1ncnn2cc(C(=O)NC3CCCC3)c(-c3ccc(Nc4nc5ccc(Oc6ccccc6)c(F)c5[nH]4)cc3)c12 [Example 112, 4-amino-N-cyclopentyl-5-{4-[(7-fluoro-6-phenoxy-1H-benzimidazol-2-yl)amino]phenyl}pyrrolo[2,1-f][1,2,4]triazine-6-carboxamide] |
| < 100 | < 100 | Nc1ncnn2cc(C(=O)O)c(-c3ccc(Nc4nc5ccc(C(F)(F)F)nc5[nH]4)cc3)c12 [Example 119] |
| < 100 | < 100 | Nc1ncnn2cc(C(=O)O)c(-c3ccc(Nc4nc5ccc(Oc6ccccc6)c(F)c5[nH]4)cc3)c12 [Example 101, 4-amino-5-{4-[(7-fluoro-6-phenoxy-1H-benzimidazol-2-yl)amino]phenyl}pyrrolo[2,1-f][1,2,4]triazine-6-carboxylic acid] |
| < 100 | < 100 | Cc1ncnc2[nH]c(Nc3ccc(-c4c(C(=O)NCC(F)(F)F)cn5ncnc(N)c45)cc3)nc12 [Example 45, 4-amino-5-{4-[(6-methyl-9H-purin-8-yl)amino]phenyl}-N-(2,2,2-trifluoroethyl)pyrrolo[2,1-f][1,2,4]triazine-6-carboxamide] |
| < 100 | < 100 | CCN(C)C(=O)c1cn2ncnc(N)c2c1-c1ccc(Nc2nc3cc(F)cc(F)c3[nH]2)cc1 [Example 89, 4-amino-5-{4-[(5,7-difluoro-1H-benzimidazol-2-yl)amino]phenyl}-N-ethyl-N-methylpyrrolo[2,1-f][1,2,4]triazine-6-carboxamide] |
| < 100 | < 100 | Nc1ncnn2cc(C(=O)NCC(F)(F)F)c(-c3ccc(Nc4nc5ccc(Cl)nc5[nH]4)cc3)c12 [Example 26, 4-amino-5-{4-[(5-chloro-3H-imidazo[4,5-b]pyridin-2-yl)amino]phenyl}-N-(2,2,2-trifluoroethyl)pyrrolo[2,1-f][1,2,4]triazine-6-carboxamide] |
| < 100 | < 100 | Nc1ncnn2cc(C(=O)NC3CC3)c(-c3ccc(Nc4nc5ccc(Oc6ccccc6)c(F)c5[nH]4)cc3)c12 [Example 105, 4-amino-N-cyclopropyl-5-{4-[(7-fluoro-6-phenoxy-1H-benzimidazol-2-yl)amino]phenyl}pyrrolo[2,1-f][1,2,4]triazine-6-carboxamide] |
| < 100 | < 100 | Cc1ccc(-c2ccc3nc(Nc4ccc(-c5c(C(=O)NCC(F)(F)F)cn6ncnc(N)c56)cc4)[nH]c3n2)cc1 [Example 115, 4-amino-5-(4-{[5-(4-methylphenyl)-3H-imidazo[4,5-b]pyridin-2-yl]amino}phenyl)-N-(2,2,2-trifluoroethyl)pyrrolo[2,1-f][1,2,4]triazine-6-carboxamide] |
| < 100 | < 100 | COCCNC(=O)c1cn2ncnc(N)c2c1-c1ccc(Nc2nc3cc(F)cc(F)c3[nH]2)cc1 [Example 75, 4-amino-5-{4-[(5,7-difluoro-1H-benzimidazol-2-yl)amino]phenyl}-N-(2-methoxyethyl)pyrrolo[2,1-f][1,2,4]triazine-6-carboxamide] |
| < 100 | < 100 | Cc1ccc(Oc2ccc3nc(Nc4ccc(-c5c(C(=O)NCC(F)(F)F)cn6ncnc(N)c56)cc4)[nH]c3n2)cc1C [Example 49, 4-amino-5-(4-{[5-(3,4-dimethylphenoxy)-3H-imidazo[4,5-b]pyridin-2-yl]amino}phenyl)-N-(2,2,2-trifluoroethyl)pyrrolo[2,1-f][1,2,4]triazine-6-carboxamide] |
| < 100 | < 100 | Cc1cccc2nc(Nc3ccc(-c4c(C(=O)NCC(F)(F)F)cn5ncnc(N)c45)cc3)[nH]c12 [Example 22, 4-amino-5-{4-[(7-methyl-1H-benzimidazol-2-yl)amino]phenyl}-N-(2,2,2-trifluoroethyl)pyrrolo[2,1-f][1,2,4]triazine-6-carboxamide] |
| < 100 | < 100 | NC(=O)C1CCN(C(=O)c2cn3ncnc(N)c3c2-c2ccc(Nc3nc4cc(F)cc(F)c4[nH]3)cc2)CC1 [Example 81, 1-[(4-amino-5-{4-[(5,7-difluoro-1H-benzimidazol-2-yl)amino]phenyl}pyrrolo[2,1-f][1,2,4]triazin-6-yl)carbonyl]piperidine-4-carboxamide] |
| < 100 | < 100 | COc1ccc2nc(Nc3ccc(-c4c(C(=O)NCC(F)(F)F)cn5ncnc(N)c45)cc3)[nH]c2c1 [Example 8, 4-amino-5-{4-[(6-methoxy-1H-benzimidazol-2-yl)amino]phenyl}-N-(2,2,2-trifluoroethyl)pyrrolo[2,1-f][1,2,4]triazine-6-carboxamide] |
| < 100 | < 100 | Nc1ncnn2cc(C(=O)N3CCOCC3)c(-c3ccc(Nc4nc5ccc(Oc6ccccc6)c(F)c5[nH]4)cc3)c12 [Example 108, 5-{4-[(7-fluoro-6-phenoxy-1H-benzimidazol-2-yl)amino]phenyl}-6-(morpholin-4-ylcarbonyl)pyrrolo[2,1-f][1,2,4]triazin-4-amine] |
| < 100 | < 100 | Nc1ncnn2cc(C(=O)NCC(F)(F)F)c(-c3ccc(Nc4nc5ccc([N+](=O)[O-])cc5[nH]4)cc3)c12 [Example 23, 4-amino-5-{4-[(6-nitro-1H-benzimidazol-2-yl)amino]phenyl}-N-(2,2,2-trifluoroethyl)pyrrolo[2,1-f][1,2,4]triazine-6-carboxamide] |
| < 100 | < 100 | Nc1ncnn2cc(C(=O)N3CCCCC3)c(-c3ccc(Nc4nc5ccc(Oc6ccccc6)c(F)c5[nH]4)cc3)c12 [Example 107, 5-{4-[(7-fluoro-6-phenoxy-1H-benzimidazol-2-yl)amino]phenyl}-6-(piperidin-1-ylcarbonyl)pyrrolo[2,1-f][1,2,4]triazin-4-amine] |
